Where two headings read alike, the source gives them in different places.
Assays:
[1] = system: GPI (μ): guinea pig ileum, predominantly μ-receptors; settings: cited from earlier work; for MVD/GPI: ratio of IC50 values
δ-opioid receptor [2] = assay: δ-opioid receptor binding, brain homogenate, versus [3H]DT; set-up: species or system rat; settings: ratio of Ki values
Protocol: The receptor-binding affinities of synthetic analogs were determined using rat brain, as previously reported [45].

[3] = target: MVD (δ): mouse vas deferens, δ-receptors; settings: cited from earlier work; for GPI/MVD: ratio of IC50 values
[4] = system: MVD (δ): mouse vas deferens, δ-receptors; assay: isolated mouse vas deferens (MVD) assay; assay type: cell-based; settings: ratio of IC50 values
Protocol: (§1) The receptor-binding affinities of synthetic analogs were determined using rat brain, as previously reported. […] The GPI tissue contains predominantly μ-receptors, while MVD tissue contains δ-receptors. […] In contrast, 11 was devoid of activity in both assays, as expected from the binding data. […] This analog turned out to be a potent μ-antagonist and a weak δ-antagonist. […] The results of 13 are in line with observations that Dmt-D-Phe-NH2 and its C-terminally extended analog are μ-receptor antagonists.

μ-opioid receptor [5] = settings: cited from earlier work; for Ki: versus [3H]DAMGO, read-out: Receptor binding affinity, Ki ± S.E., μ
δ-opioid receptor [6] = settings: cited from earlier work; for Ki: versus [3H]DT, read-out: Receptor binding affinity, Ki ± S.E., δ; for μ/δ: ratio of Ki values
μ-opioid receptor [7] = assay: μ-opioid receptor binding, brain homogenate, versus [3H]DAMGO; set-up: species or system rat; settings: Table 6; ratio of Ki values
Protocol: as §1
Two methyl groups on Dmp^4 may interfere with the receptor interaction due to a reduction in conformational flexibility and/or enhanced lipophilicity. To further examine the usefulness of Dmp-containing DYN peptides as κ-opioid receptor ligands, the in vitro bioactivity of DYN peptides was determined using the GPI assay (Table 5).

[8] = system: GPI (μ): guinea pig ileum, predominantly μ-receptors; assay: isolated guinea pig ileum (GPI) assay; assay type: cell-based; settings: Table 6; ratio of IC50 values
Protocol: as §1

Q: For [Dmt^1, Dmp^4]ENK [compound 12], which IC50 ([1]; Table 1) is on record?
A: 2 ± 0.51 nM

Q: What about the μ/δ (δ-opioid receptor [2]; Table 1) of the same substance?
A: 0.19

Q: And the IC50 ([3]; Table 1)?
A: 1.45 ± 0.26 nM

Q: And the GPI/MVD ([4]; Table 1)?
A: 1.38

Q: What about the Ki (μ-opioid receptor [5]; Table 1, rat brain) of the same substance?
A: 0.03 ± 0.011 nM

Q: Which IC50 ([1]; Table 6) does the source give for [Dmt^1]DT [compound 36] here?
A: 88.4 ± 22.7 nM

Q: What about the Ki (δ-opioid receptor [6]; Table 6) of the same substance?
A: 0.012 ± 0.002 nM

Q: And the μ/δ (δ-opioid receptor [2]; Table 6)?
A: 21.8

Q: And the IC50 ([3]; Table 6)?
A: 0.052 ± 0.007 nM

Q: And the GPI/MVD ([4]; Table 6)?
A: 1700

Q: What about the Ki (μ-opioid receptor [5]; Table 6) of the same substance?
A: 0.261 ± 0.06 nM

Q: Which IC50 ([1]; Table 6, footnote d) does the source give for [Dmt^1]EM2 [reference compound] here?
A: 0.07 ± 0.02 nM

Q: What about the MVD/GPI ([1]; Table 6, footnote d) of the same substance?
A: 26.7

Q: And the IC50 ([3]; Table 6, footnote d)?
A: 1.87 ± 0.61 nM

Q: What about the Ki (μ-opioid receptor [5]; Table 6, footnote d) of the same substance?
A: 0.15 ± 0.04 nM

Q: Which IC50 ([1]; Table 1, footnote c) does the source give for [Dmt^1]ENK [reference compound] here?
A: 0.55 ± 0.17 nM

Q: And the IC50 ([1]; Table 6, footnote c)?
A: 0.55 ± 0.17 nM

Q: What about the μ/δ (δ-opioid receptor [6]; Table 1, footnote c) of the same substance?
A: 0.22

Q: What about the Ki (δ-opioid receptor [6]; Table 1, footnote c) of the same substance?
A: 0.031 ± 0.011 nM

Q: What about the μ/δ (δ-opioid receptor [6]; Table 6, footnote c) of the same substance?
A: 0.22

Q: And the Ki (δ-opioid receptor [6]; Table 6, footnote c)?
A: 0.031 ± 0.011 nM

Q: And the IC50 ([3]; Table 1, footnote c)?
A: 0.17 ± 0.02 nM

Q: And the GPI/MVD ([3]; Table 1, footnote c)?
A: 3.24

Q: And the IC50 ([3]; Table 6, footnote c)?
A: 0.17 ± 0.02 nM

Q: What about the GPI/MVD ([3]; Table 6, footnote c) of the same substance?
A: 3.24

Q: What about the Ki (μ-opioid receptor [5]; Table 1, footnote c) of the same substance?
A: 0.0068 ± 0.003 nM

Q: What about the Ki (μ-opioid receptor [5]; Table 6, footnote c) of the same substance?
A: 0.0068 ± 0.003 nM

Q: For [Dmt^1]YRFB [reference compound], which IC50 ([1]; Table 6, footnote c) is on record?
A: 0.034 ± 0.065 nM

Q: And the MVD/GPI ([1]; Table 6, footnote c)?
A: 11.7

Q: And the “Ke of CTAP against the peptide, GPI” value ([1]; antagonist CTAP (μ), GPI assay)?
A: 85.5 nM

Q: And the Ki (δ-opioid receptor [6]; Table 6, footnote c)?
A: 1.13 ± 0.13 nM

Q: And the IC50 ([3]; Table 6, footnote c)?
A: 0.398 ± 0.085 nM

Q: What about the “Ke of CTAP against the peptide, MVD” value ([3]; antagonist CTAP (μ), MVD assay) of the same substance?
A: 7.89 nM

Q: What about the “Ke of N,N(Me)2Dmt-Tic-OH against the peptide, MVD” value ([3]; antagonist N,N(Me)2Dmt-Tic-OH (δ), MVD assay) of the same substance?
A: 192 nM

Q: And the δ/μ (μ-opioid receptor [5]; Table 6, footnote c, ratio of Ki values)?
A: 551

Q: And the Ki (μ-opioid receptor [5]; Table 6, footnote c)?
A: 0.00205 ± 0.00069 nM

Q: With [Phe^1]DT [compound 37] as the substance, how does the IC50 ([1]; Table 6) read?
A: > 10000 nM

Q: And the Ki (δ-opioid receptor [6]; Table 6)?
A: 2.68 ± 1.22 nM

Q: And the IC50 ([3]; Table 6)?
A: 10.4 ± 1.5 nM

Q: And the Ki (μ-opioid receptor [5]; Table 6)?
A: > 2180 nM

Q: Which δ/μ (μ-opioid receptor [7]) does the source give for [Phe^1]EM2 [compound 40] here?
A: 348

Q: What about the IC50 ([1]; Table 6) of the same substance?
A: 1070 ± 309 nM

Q: What about the MVD/GPI [8] of the same substance?
A: 4.85

Q: What about the Ki (δ-opioid receptor [6]; Table 6) of the same substance?
A: 18900 nM

Q: What about the IC50 ([3]; Table 6) of the same substance?
A: 5200 nM

Q: And the Ki (μ-opioid receptor [5]; Table 6)?
A: 54.1 ± 23.4 nM

Q: For [Phe^1]ENK [compound 33], which IC50 ([1]; Table 6) is on record?
A: > 10000 nM

Q: And the Ki (δ-opioid receptor [6]; Table 6)?
A: 73.7 ± 19.5 nM

Q: What about the μ/δ (δ-opioid receptor [2]; Table 6) of the same substance?
A: 2.29

Q: What about the IC50 ([3]; Table 6) of the same substance?
A: > 10000 nM

Q: And the Ki (μ-opioid receptor [5]; Table 6)?
A: 169 ± 12 nM

Q: Which results are given for [Phe^1]YRFB [compound 42]?
A: δ/μ (μ-opioid receptor [7]): >393; IC50 ([1]; Table 6): 633 ± 89 nM; MVD/GPI [8]: 11.2; Ki (δ-opioid receptor [6]; Table 6): > 2820 nM; IC50 ([3]; Table 6): 7140 ± 950 nM; Ki (μ-opioid receptor [5]; Table 6): 7.17 ± 1.03 nM
